Data on one compound can be found in US20240173329A1, “BELVARAFENIB FOR USE IN TREATMENT OF BRAIN CANCERS” (Genentech, Inc., priority 2021, published 2024).

A short description of this series: Brain to plasma ratio of belvarafenib, summary over mice and rats. It counts as in vivo. As to conditions: for Kp: mouse, rat, brain/plasma. The procedure:
Pharmacokinetic parameters of belvarafenib were calculated from plasma and brain concentration-time data by a non-compartmental method using Phoenix™ WinNonlin 8.1 (Certara, USA). The peak plasma and brain concentration (Cmax) and the corresponding time (Tmax) were directly obtained from the raw data. The area under the plasma curve (AUClast) was obtained by linear-log trapezoidal summation. Other PK parameters such as AUC from dosing time extrapolated to infinity (AUCinf), half-life (t1/2) and mean residence time (MTRlast) were calculated using WinNonlin. The plasma and brain concentrations of belvarafenib were presented as MEAN±S.D. The brain to plasma (B/P) ratio of Belvarafenib was calculated by dividing AUClast in the brain by AUClast in the plasma.
The brain to plasma ratio is expressed in terms of B/P (nonclinical) defined as the percentage of brain exposure relative to plasma. The B/P for belvarafenib was determined experimentally according to the present disclosure and wherein the B/P of 93% is for mice and the B/P of 138% is for rats. The B/P for DAY101 is for mice was taken from Gampa, et al., “Brain Distribution and Active Efflux of Three pan-RAF Inhibitors: Considerations in the Treatment of Melanoma Brain Metastases”, J Pharmacol Exp Ther 368:446-461, March 2019. The B/P for dabrafenib is for mice and was taken from Mittapalli, et al., “Mechanisms Limiting Distribution of the Threonine-Protein Kinase B-RaFV600E Inhibitor Dabrafenib to the Brain: Implications for the Treatment of Melanoma Brain Metastases”, J Pharmacol Exp Ther 344:[…], 2013. The B/P for vemurafenib is for mice and was taken from Mittapalli, et al., “Impact of P-glycoprotein (ABCB1) and breast cancer resistance protein (ABCG2) on the brain distribution of a novel BRAF inhibitor: vemurafenib (PLX4032)”, J Pharmacol Exp Ther 342:33-40, 2013. […]

For the compound `Cc1ccc2c(Nc3cccc(Cl)c3F)nccc2c1NC(=O)c1csc2c(N)ncnc12` [Belvarafenib, 4-amino-N-(1-((3-chloro-2-fluorophenyl)amino)-6-methylisoquinolin-5-yl)thieno[3,2-d]pyrimidine-7-carboxamide], where the note is “93% mice, 138% rats”, the “B/P (nonclinical), percentage of brain exposure relative to plasma” value is given as 93-138%. The Kp – broadly, tissue or fluid exposure divided by exposure in the circulation – reads like this: (oral, 30 mg/kg) 0.8 to 1.2; (mice and rats, oral administration) around 1.
